In article PMC3685885 (Toxicology and applied pharmacology, 2013):
“And” between values parts separate entries of the source, which are not always exact repeats. Identical values can stand only once. Like-named read-outs stand apart in the source and are kept apart here.

Assays:
human CB2Rs [1] = molecular target: T1, human CB2Rs (Homo sapiens, UniProt P34972); assay: [35S]GTPγS binding; format: biochemical; settings: CHO-hCB2 membranes; for Intrinsic activity at CB2Rs, G-protein activation: agonists at 10 µM compared to CP-55,940; for CB2R Efficacy (EMAX) G-protein Activation: 10 µM, [35S]GTPγS binding, mean ± SEM
T1 sequence (P34972 whole entry): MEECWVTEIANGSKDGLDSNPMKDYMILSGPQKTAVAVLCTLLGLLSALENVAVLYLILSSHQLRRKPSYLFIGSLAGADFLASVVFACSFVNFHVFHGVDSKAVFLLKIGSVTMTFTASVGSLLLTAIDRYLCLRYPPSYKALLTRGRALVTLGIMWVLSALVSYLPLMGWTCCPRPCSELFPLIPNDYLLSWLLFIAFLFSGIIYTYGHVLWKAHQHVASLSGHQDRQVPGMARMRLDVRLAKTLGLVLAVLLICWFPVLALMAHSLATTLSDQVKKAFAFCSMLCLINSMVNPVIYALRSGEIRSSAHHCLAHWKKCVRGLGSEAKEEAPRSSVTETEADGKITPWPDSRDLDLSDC

human CB2Rs [2] = molecular target: T1, human CB2Rs; assay: [3H]CP-55,940 competition receptor binding in CHO-hCB2 membranes
human CB2Rs [3] = molecular target: T1, human CB2Rs; assay: Inhibition of forskolin-stimulated adenylyl cyclase; format: cell-based; settings: for CB2R Efficacy (EMAX) AC-Inhibition: 10 µM; for Potency to regulate AC-activity relative to the parent compound: IC50 metabolite versus parent; for Intrinsic activity at CB2Rs, AC-inhibition: 10 µM compared to CP-55,940; for FRO for 50% AC-Inhibition: fractional CB2R occupancy at AC-IC50, FRO = [DRUG] / (Ki + [DRUG])
[4] = molecular target: human mu-opioid receptors (Homo sapiens, UniProt P35372); assay: [35S]GTPγS binding; format: biochemical; settings: 10 µM, membranes not expressing hCB2Rs
Chain of human mu-opioid receptors (P35372 whole entry): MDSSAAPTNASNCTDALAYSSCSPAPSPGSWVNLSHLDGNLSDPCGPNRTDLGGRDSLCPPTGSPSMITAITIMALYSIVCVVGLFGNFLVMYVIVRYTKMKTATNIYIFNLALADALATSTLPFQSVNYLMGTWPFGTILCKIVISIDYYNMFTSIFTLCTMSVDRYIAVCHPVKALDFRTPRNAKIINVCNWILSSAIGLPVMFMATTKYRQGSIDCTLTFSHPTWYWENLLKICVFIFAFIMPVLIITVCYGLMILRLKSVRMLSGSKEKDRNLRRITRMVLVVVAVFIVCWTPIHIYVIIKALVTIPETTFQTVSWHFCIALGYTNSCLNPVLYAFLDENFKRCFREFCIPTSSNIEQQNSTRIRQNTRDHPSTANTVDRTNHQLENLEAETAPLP

[5] = intact CHO-hCB2 cells, mean ± SEM
[6] = read-out: CB2R Affinity (Ki), [3H]CP-55,940 0.2 nM, CHO-hCB2 membranes, mean ± SEM
[7] = read-out: Potency for AC-Inhibition (IC50), intact CHO-hCB2 cells, 30 µM forskolin, mean ± SEM

Row | Compound | Intrinsic activity at CB2Rs, G-protein activation (human CB2Rs [1]) | CB2R Efficacy (EMAX) G-protein Activation (human CB2Rs [1]) | CB2R Efficacy (EMAX) AC-Inhibition (human CB2Rs [3]; [5]) | Ki (human CB2Rs [2]; [6]) | other results
1 | COc1ccc(C(=O)c2c(C)n(CCN3CCOCC3)c3cc(I)ccc23)cc1 [AM-630, reference compound] | acted as inverse agonists |  |  |  | 
2 | CCCCCOc1c(OC)ccc2cc(C(=O)NCc3ccc4c(c3)OCO4)c(=O)[nH]c12 [JTE-907, reference compound] | acted as inverse agonists |  |  |  | 
3 | CCCCCn1cc(C(=O)c2cccc3ccccc23)c2ccccc21 [JWH-018, 1-pentyl-3-(1-naphthoyl)indole] |  | 60.3 ± 11.4 (7) fmole/mg | 59.3 ± 4.0 (4) % Inhibition |  | Ki (human CB2Rs [2]): 5.6 ± 2.4 nM; IC50 (human CB2Rs [3]): 3.6 ± 2.2 nM; Effect on G-protein activity in CHO-hMOR membranes [4]: failed to significantly alter G-protein activity
4 | O=C(c1cccc2ccccc12)c1cn(CCCCCO)c2ccccc12 [JWH-018-M5] |  | 38.4 ± 8.5 (5) fmole/mg | 53.5 ± 4.6 (4) % Inhibition | 47.4 ± 10.1 nM | Potency to regulate AC-activity relative to the parent compound (human CB2Rs [3]): ~5 fold; Intrinsic activity at CB2Rs, AC-inhibition (human CB2Rs [3]; intact CHO-hCB2 cells): partial CB2R agonists; IC50 (human CB2Rs [3]; [7]): 17.7 ± 5.5 nM
5 | O=C(O)CCCCn1cc(C(=O)c2cccc3ccccc23)c2ccccc21 [JWH-018-M6] |  |  |  | > 10000 nM | CB2R affinity (human CB2Rs [2]; CHO-hCB2 membranes): lack affinity for CB2Rs
6 | CCCCn1cc(C(=O)c2cccc3ccccc23)c2ccccc21 [JWH-073, 1-butyl-3-(1-naphthoyl)indole] |  | 40.1 ± 4.2 (3) fmole/mg | 62.6 ± 2.7 (3) % Inhibition |  | IC50 (human CB2Rs [3]): 16.9 ± 1.9 nM; FRO for 50% AC-Inhibition (human CB2Rs [3]): 62.5% and 62.5 ± 3.0 (5) %; Intrinsic activity at CB2Rs, AC-inhibition (human CB2Rs [3]; intact CHO-hCB2 cells): full agonists; Effect on G-protein activity in CHO-hMOR membranes [4]: failed to significantly alter G-protein activity
7 | O=C(c1cccc2ccccc12)c1cn(CCCCO)c2ccccc12 [JWH-073-M5] |  | 31.0 ± 1.0 (3) fmole/mg | 54.2 ± 5.9 (4) % Inhibition | 96 ± 7.1 nM | Potency to regulate AC-activity relative to the parent compound (human CB2Rs [3]): equipotent; FRO for 50% AC-Inhibition (human CB2Rs [3]): 12.1% and 12.1 ± 1.6 (3) %; IC50 (human CB2Rs [3]; [7]): 13.3 ± 2 nM
8 | O=C(O)CCCn1cc(C(=O)c2cccc3ccccc23)c2ccccc21 [JWH-073-M6] |  |  |  | > 10000 nM | CB2R affinity (human CB2Rs [2]; CHO-hCB2 membranes): lack affinity for CB2Rs
9 | SR-144528 [reference compound] | acted as inverse agonists |  |  |  | 
